Assay results from ChEMBL document CHEMBL6078699, “Constrained β-Hairpins Targeting the EphA4 Ligand Binding Domain” (J Med Chem, 2024).
Activity calls are given as the source filed them. No cut-off for these calls is given here. Numbered stars: 1 amine (or outer) side, 2 acyl side, 3 side chain; on linkers, the order of the positions; unused ones are H or OH. Square brackets hold non-standard residues; d marks the D form. Peptide text beside a SMILES is read from it. Azetidine3carboxylic = O=C(C1CN([*:1])C1)[*:2]; βPro(3R) = O=C([C@@H]1CCN([*:1])C1)[*:2]; βPro(3S) = O=C([C@H]1CCN([*:1])C1)[*:2]; X2 = O=C([C@H]1CCCN([*:1])C1)[*:2]; βAla = NCCC(=O)O

Experiments:
[1] = molecular target: Ephrin type-A receptor 4 (Homo sapiens) (UniProt P54764); experiment: Binding affinity to EphA4-LBD (unknown origin) at 40 uM by isothermal titration calorimetry
Ephrin type-A receptor 4 (Homo sapiens), sequence (P54764 whole entry, the tested form may be a part): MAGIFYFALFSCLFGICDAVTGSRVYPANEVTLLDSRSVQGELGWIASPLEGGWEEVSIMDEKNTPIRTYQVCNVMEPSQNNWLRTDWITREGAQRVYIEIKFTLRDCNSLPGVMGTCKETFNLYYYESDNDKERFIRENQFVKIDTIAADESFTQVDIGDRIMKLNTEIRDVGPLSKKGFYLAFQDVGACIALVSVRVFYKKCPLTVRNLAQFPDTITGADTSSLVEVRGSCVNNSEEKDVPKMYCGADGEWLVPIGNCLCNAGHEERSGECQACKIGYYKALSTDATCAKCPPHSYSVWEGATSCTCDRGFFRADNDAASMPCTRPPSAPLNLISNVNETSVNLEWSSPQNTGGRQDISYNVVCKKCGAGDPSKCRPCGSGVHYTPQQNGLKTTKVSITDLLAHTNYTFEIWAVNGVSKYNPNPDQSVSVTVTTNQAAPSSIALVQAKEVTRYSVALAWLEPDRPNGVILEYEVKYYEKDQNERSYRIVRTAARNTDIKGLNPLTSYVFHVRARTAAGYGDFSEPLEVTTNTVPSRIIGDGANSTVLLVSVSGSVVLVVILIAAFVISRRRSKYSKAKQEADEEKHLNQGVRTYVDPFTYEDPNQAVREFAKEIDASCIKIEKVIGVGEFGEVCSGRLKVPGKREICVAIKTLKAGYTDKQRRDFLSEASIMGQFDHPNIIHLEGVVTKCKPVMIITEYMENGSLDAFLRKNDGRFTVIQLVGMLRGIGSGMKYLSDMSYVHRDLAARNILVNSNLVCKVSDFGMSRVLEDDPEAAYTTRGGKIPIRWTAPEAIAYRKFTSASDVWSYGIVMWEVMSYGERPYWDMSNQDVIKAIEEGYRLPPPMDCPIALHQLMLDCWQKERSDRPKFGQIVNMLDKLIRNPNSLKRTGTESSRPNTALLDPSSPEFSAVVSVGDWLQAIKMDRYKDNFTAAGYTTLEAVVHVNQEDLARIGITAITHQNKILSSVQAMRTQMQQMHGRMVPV

[2] = molecular target: Ephrin type-A receptor 4 (Mus musculus) (UniProt Q03137); experiment: Induction of EphA4 phosphorylation in C57BL/6 mouse Primary cortical neuron at 1 to 10 uM incubated for 30 mins by immunoprecipitation based Western blot analysis; type: cell-based; conditions: dose 1-10 µM
Ephrin type-A receptor 4 (Mus musculus), sequence (Q03137 whole entry): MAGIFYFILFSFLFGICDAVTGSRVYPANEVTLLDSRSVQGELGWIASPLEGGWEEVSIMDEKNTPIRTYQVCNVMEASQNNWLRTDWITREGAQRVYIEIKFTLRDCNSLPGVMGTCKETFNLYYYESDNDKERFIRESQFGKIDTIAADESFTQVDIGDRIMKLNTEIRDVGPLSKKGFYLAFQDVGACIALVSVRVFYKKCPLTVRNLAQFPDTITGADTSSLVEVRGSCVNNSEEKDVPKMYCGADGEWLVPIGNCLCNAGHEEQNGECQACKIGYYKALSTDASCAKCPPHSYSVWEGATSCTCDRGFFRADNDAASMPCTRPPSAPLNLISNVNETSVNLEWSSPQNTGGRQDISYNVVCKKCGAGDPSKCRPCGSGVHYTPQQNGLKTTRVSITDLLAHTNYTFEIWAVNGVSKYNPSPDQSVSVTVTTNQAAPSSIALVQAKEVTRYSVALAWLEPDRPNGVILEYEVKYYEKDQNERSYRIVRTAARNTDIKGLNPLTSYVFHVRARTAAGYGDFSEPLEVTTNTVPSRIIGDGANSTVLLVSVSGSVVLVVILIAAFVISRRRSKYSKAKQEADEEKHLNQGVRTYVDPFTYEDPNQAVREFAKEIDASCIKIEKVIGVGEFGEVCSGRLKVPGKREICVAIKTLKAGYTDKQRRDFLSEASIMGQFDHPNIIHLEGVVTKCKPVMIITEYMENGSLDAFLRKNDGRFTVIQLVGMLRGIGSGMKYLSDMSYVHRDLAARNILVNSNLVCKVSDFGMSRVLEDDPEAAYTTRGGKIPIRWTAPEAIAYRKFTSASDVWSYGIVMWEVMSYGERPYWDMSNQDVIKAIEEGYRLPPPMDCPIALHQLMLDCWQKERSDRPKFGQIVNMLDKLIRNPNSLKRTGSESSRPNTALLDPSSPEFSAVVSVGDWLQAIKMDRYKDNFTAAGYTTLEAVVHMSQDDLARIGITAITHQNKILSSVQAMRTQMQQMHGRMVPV

Row | Structure (SMILES) | Activity [1] | Activity [2]
1 | CC(C)[C@H](NC(=O)[C@H](C)NC(=O)[C@H](Cc1ccc(O)cc1)NC(=O)[C@@H]1CCCN1C(=O)CCN)C(=O)N[C@@H](Cc1ccc(O)cc1)C(=O)N[C@@H](CCCNC(=N)N)C(=O)N1CC[C@@H]1C(=O)N[C@@H](CO)C(=O)N[C@@H](Cc1c[nH]c2ccccc12)C(=O)N[C@@H](CO)C(=O)N[C@@H](C)C(N)=O | inactive | –
2 | CC(C)[C@H](NC(=O)[C@H](C)NC(=O)[C@H](Cc1ccc(O)cc1)NC(=O)[C@@H]1CCCN1C(=O)CCN)C(=O)N[C@@H](Cc1ccc(O)cc1)C(=O)N[C@@H](CCCNC(=N)N)C(=O)N1CC[C@H]1C(=O)N[C@@H](CO)C(=O)N[C@@H](Cc1c[nH]c2ccccc12)C(=O)N[C@@H](CO)C(=O)N[C@@H](C)C(N)=O | inactive | –
3 | CC(C)[C@H](NC(=O)[C@H](C)NC(=O)[C@H](Cc1ccc(O)cc1)NC(=O)[C@@H]1CCCN1C(=O)CCN)C(=O)N[C@@H](Cc1ccc(O)cc1)C(=O)N[C@@H](CCCNC(=N)N)C(=O)N[C@H]1CC[C@@H]1C(=O)N[C@H](CO)C(=O)N[C@@H](Cc1c[nH]c2ccccc12)C(=O)N[C@@H](CO)C(=O)N[C@@H](C)C(N)=O | inactive | –
4 | CC(C)[C@H](NC(=O)[C@H](CS)NC(=O)[C@H](Cc1ccc(O)cc1)NC(=O)[C@@H]1CCCN1C(=O)CCN)C(=O)N[C@@H](Cc1ccc(O)cc1)C(=O)N[C@@H](CCCNC(=N)N)C(=O)NCCC(=O)N[C@@H](CO)C(=O)N[C@@H](Cc1cc2ccccc2[nH]1)C(=O)N[C@@H](CO)C(=O)N[C@@H](CS)C(N)=O | – | inactive
5 | CC(C)[C@H](NC(=O)[C@H](C)NC(=O)[C@H](Cc1ccc(O)cc1)NC(=O)[C@@H]1CCCN1C(=O)CCN)C(=O)N[C@@H](Cc1ccc(O)cc1)C(=O)N[C@@H](CCCNC(=N)N)C(=O)N1CC(C(=O)N[C@@H](CO)C(=O)N[C@@H](Cc2c[nH]c3ccccc23)C(=O)N[C@@H](CO)C(=O)N[C@@H](C)C(N)=O)C1 (H-[βAla]PYAVYR[Azetidine3carboxylic]SWSA-NH2) | inactive | –
6 | CC(C)[C@H](NC(=O)[C@H](C)NC(=O)[C@H](Cc1ccc(O)cc1)NC(=O)[C@@H]1CCCN1C(=O)CCN)C(=O)N[C@@H](Cc1ccc(O)cc1)C(=O)N[C@@H](CCCNC(=N)N)C(=O)N1CCC[C@H](C(=O)N[C@@H](CO)C(=O)N[C@@H](Cc2c[nH]c3ccccc23)C(=O)N[C@@H](CO)C(=O)N[C@@H](C)C(N)=O)C1 (H-[βAla]PYAVYR[X2]SWSA-NH2) | inactive | –
7 | CC(C)[C@H](NC(=O)[C@H](C)NC(=O)[C@H](Cc1ccc(O)cc1)NC(=O)[C@@H]1CCCN1C(=O)CCN)C(=O)N[C@@H](Cc1ccc(O)cc1)C(=O)N[C@@H](CCCNC(=N)N)C(=O)N1CC[C@@H](C(=O)N[C@@H](CO)C(=O)N[C@@H](Cc2c[nH]c3ccccc23)C(=O)N[C@@H](CO)C(=O)N[C@@H](C)C(N)=O)C1 (H-[βAla]PYAVYR[βPro(3R)]SWSA-NH2) | inactive | –
8 | CC(C)[C@H](NC(=O)[C@H](C)NC(=O)[C@H](Cc1ccc(O)cc1)NC(=O)[C@@H]1CCCN1C(=O)CCN)C(=O)N[C@@H](Cc1ccc(O)cc1)C(=O)N[C@@H](CCCNC(=N)N)C(=O)N1CC[C@H](C(=O)N[C@@H](CO)C(=O)N[C@@H](Cc2c[nH]c3ccccc23)C(=O)N[C@@H](CO)C(=O)N[C@@H](C)C(N)=O)C1 (H-[βAla]PYAVYR[βPro(3S)]SWSA-NH2) | inactive | –
